Laboratory results published in publication PMC8162069 (Chemical Science, 2020).

Biological target: HepG (Trichoderma virens, UniProt G9NDK9)
Experiment: X-ray crystal structure
Type: binding
Conditions: active site of each subunit

Sequence of HepG (G9NDK9 1-336): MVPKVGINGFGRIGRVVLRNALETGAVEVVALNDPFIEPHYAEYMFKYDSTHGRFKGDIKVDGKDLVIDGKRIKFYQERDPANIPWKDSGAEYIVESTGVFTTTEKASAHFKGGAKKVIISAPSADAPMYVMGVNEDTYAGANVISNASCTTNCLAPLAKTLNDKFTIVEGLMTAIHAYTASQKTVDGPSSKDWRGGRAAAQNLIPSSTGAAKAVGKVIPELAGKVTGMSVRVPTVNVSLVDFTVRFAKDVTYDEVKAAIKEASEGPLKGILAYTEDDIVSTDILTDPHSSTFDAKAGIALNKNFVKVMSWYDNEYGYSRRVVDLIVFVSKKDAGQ

NC(=O)c1ccc[n+]([C@@H]2O[C@H](COP(=O)(O)OP(=O)(O)OC[C@H]3O[C@@H](n4cnc5c(N)ncnc54)[C@H](O)[C@@H]3O)[C@@H](O)[C@H]2O)c1 [NAD^+]
X-ray crystal structure: Each subunit of the tetrameric HepG contains a NAD^+ cofactor
